# Earlier results as cited in patent US11612656B2, “Use of small molecule based on indotricarbocyanine structure in preparation of medicines for tumor photothermal therapy” (Nanjing Nuoyuan Medical Devices Co., LTD., priority 2021, dated 2023).
# Conditions: free ICG 20 μg/ml, light irradiation at power density 1 W/cm^2
compound,measurement,value
"CC1(C)C(/C=C/C=C/C=C/C=C2/N(CCCCS(=O)(=O)O)c3ccc4ccccc4c3C2(C)C)=[N+](CCCCS(=O)(=O)O)c2ccc3ccccc3c21.[Na+] [ICG, Indocyanine green]",photothermal conversion efficiency (PTCE),15.1%
